The text below walks through data of patent publication US7943184B2, “Process for preparing an extract from ivy leaves” (Engelhard Arzneimittel GmbH & Co. KG, priority 2003, dated 2011).

Series [1] is described as follows: Absorption study by means of the biopharmaceutics classification system (BCS). It counts as in vitro ADME. The method, then:
It was possible to show in an absorption study by means of the biopharmaceutics classification system (BCS) that α-hederin is to be attributed with a moderate absorption (10-90%). […] Absorption studies were carried out on rats for this purpose.

Series [2] is described as follows: Absorption studies on rats: α-hederin plasma concentration after i.v. or oral administration of ivy leaf extracts. It counts as in vivo. Conditions: all samples after i.v. or p.o. administration of extract A or B. An excerpt:
The influence of administration of two different extracts on the plasma concentration of α-hederin was subsequently investigated. The change in the plasma concentration of α-hederin with a single administration compared with multiple administration of the extract and with different blood sampling times after administration was also investigated, as was the α-hederin absorption rate. Two extracts whose saponin distribution is shown in Table 1 below were selected for this purpose:
For intravenous administration, the required amount of extract was dissolved in 11% (m/m) ethanol, filtered and injected. It was aimed to administer a volume of 2 ml of extract solution (dose in each case [mg/kg of bodyweight]: 25). A blood sample was taken from the animals 5 minutes after the administration. About 2 ml of whole blood with added EDTA for anticoagulation were required for each sample.
Suspensions of the extracts in glycerol were prepared for oral administration. The animals were gavaged with about 2 ml of these suspensions (dose in each case [mg/kg of bodyweight]: 1000 and 166.66). 2 ml of blood were taken from each of the animals 1 and 3 hours after the last administration in each case.
The total saponin content takes account of the molar masses of the two constituents and is based on α-hederin. The total saponin content in extract A in this case was 9.8%, based on α-hederin. […]

The next series has as its system smooth muscles. Nature of the series: Spasmolytic activity / relaxation of smooth muscles. The following applies: via binding to β-adrenergic receptors; recent studies by the applicant.

In the case of `C[C@@H]1O[C@@H](O[C@H]2[C@H](O[C@H]3CC[C@@]4(C)[C@@H](CC[C@]5(C)[C@@H]4CC=C4[C@@H]6CC(C)(C)CC[C@]6(C(=O)O[C@@H]6O[C@H](CO[C@@H]7O[C@H](CO)[C@@H](O[C@@H]8O[C@@H](C)[C@H](O)[C@@H](O)[C@H]8O)[C@H](O)[C@H]7O)[C@@H](O)[C@H](O)[C@H]6O)CC[C@]45C)[C@]3(C)CO)OC[C@H](O)[C@@H]2O)[C@H](O)[C@H](O)[C@H]1O` [hederacoside C], the “permeation through the membranes” value in series [1] (same conditions as BCS absorption study) was “did not permeate through the membranes”. In series [2], the “Hederacoside C in plasma samples” value was “not detectable”.

Turning to `C[C@@H]1O[C@@H](O[C@H]2[C@H](O[C@H]3CC[C@@]4(C)[C@@H](CC[C@]5(C)[C@@H]4CC=C4[C@@H]6CC(C)(C)CC[C@]6(C(=O)O)CC[C@]45C)[C@]3(C)CO)OC[C@H](O)[C@@H]2O)[C@H](O)[C@H](O)[C@H]1O` [α-hederin], the “absorption (BCS)” value in series [1] (biopharmaceutics classification system, moderate absorption) is listed as 10-90%. Moreover, the “relaxation of smooth muscles” value in the series with smooth muscles is listed as “causes relaxation of smooth muscles”.
